Assay [1] concerns Enterococcus faecalis. The experiment in a line: Minimum inhibitory concentration determination, Example 1 (Table 7). It is filed as cell-based. As to the method:
(§1) A primary inoculum suspension of a bacterial isolate in saline-pluronic, equivalent to a 0.5 McFarland turbidity standard is prepared. The final inoculum suspension is prepared by diluting a 0.3 ml aliquot of the primary suspension in 25 ml of Rapid Pos Inoculum Broth (B1015-14, Baxter Diagnostics Inc., MicroScan Division, West Sacramento, Calif.). A 115 μl of the final inoculum is added to the growth compartment which contains dried material of fluorogenic enzyme substrates equivalent to 0.023 mM leucine-7-amido-4-methylcoumarin, 0.012 mM phenylalanine-7-amido-4-methylcoumarin and 0.058 mM methylumbelliferyl phosphate and 1.15 mM HEPES buffer at pH 7.0. The final inoculum is also added to a number of compartments containing dried material identical to that in the growth well and different concentrations of an antimicrobial agent. An aliquot of the final inoculum is also added to a compartment, containing only dried HEPES buffer, acting as a control. The inoculated multicompartment device (panel) is inserted in the autoSCAN®-W/A. The fluorescence of each compartment is measured at predetermined times and a Growth Index is calculated by dividing the fluorescence of the growth compartment by that of the negative control compartment.
(§2) If the value of the Growth Index is equal to or exceeds a specified value, the Minimum Inhibitory Concentration for every antimicrobial agent present in the multicompartment device is calculated. Otherwise the device is returned to its position and measured again at the next read time. The read times in this example are 3.5, 4.5, 5.5, 7.0, 8.0, 11.0, and 15.0 hours. For calculation of minimum inhibitory concentration, the percent fluorescence of compartments containing the different concentrations of the antimicrobial agent is calculated by subtracting from each compartment the fluorescence of the control well and dividing it by the delta fluorescence of the growth compartment, obtained by subtracting the fluorescence of the negative control compartment from the fluorescence of the growth compartment. The minimum inhibitory concentration is calculated using a mathematical model specific for each concentration range of the antimicrobial agent. Using a mathematical model based on discriminate functional analysis, the minimum inhibitory concentration of each antimicrobial agent, for the organism tested, can be determined. Utilization of a discriminate function analysis model in microbiological pattern recognition is described in S. Bascomb, Computers in Taxonomy and Systematics, p. 65-102 In T. N. Bryant and J. W. T. Wimpenny (Ed.), Computers in Microbiology, a Practical Approach (IRL Press, Oxford). In an alternative embodiment the minimum inhibitory concentration for each antimicrobial agent for the organism tested can be determined by a breakpoint or threshold method or linear regression analysis. J. McKie, et al., Antimicrobial Agents and Chemotherapy (1980) v. 17, 813-823.
(§3) In Example 1, the growth of Enterococcus faecalis in wells containing specified amounts of antimicrobial agents is estimated by measurement of fluorescence. In Table 6, the percent fluorescence at different concentrations of antimicrobial agents is reported. For example, 0.12, 0.25, 0.5, 1, 2, 4 and 8 μg/mL of ampicillin (Am) were present in the microdilution wells.
In Table 7, the minimum inhibitory concentration for Example 1 are reported.

Assay [2] relates to Enterococcus faecalis. The experiment in a line: Percent fluorescence (growth) in wells containing antimicrobial agents, Example 1 (Table 6). It is filed as cell-based. The note with it: Enterococcus faecalis; for activity at 32 µg/mL: 32 μg/mL. On the procedure: as §1
^FL growth - ^FL control
as §2, §3
The numbers 105, 105, 67, 7, 6, 5, 6 are percent fluorescence values as calculated in […]. These figures are used to determine susceptibility according to the methods discussed on pages 12 and 13.

[3] abbreviates: Enterococcus faecalis, read-out: concentration at which organism was found to be susceptible.
Setting [4] is: Enterococcus faecalis, read-out: minimum inhibitory concentration.
[5] abbreviates: Enterococcus faecalis, Table 7, Example 1, read-out: concentration at which organism was found to be susceptible.
[6] abbreviates: Table 7, Enterococcus faecalis, Example 1, read-out: minimum inhibitory concentration.
Where [7] appears, read: 1 μg/mL, read-out: percent fluorescence.
Setting [8] is: 2 μg/mL, read-out: percent fluorescence.
[9] abbreviates: 4 μg/mL, read-out: percent fluorescence.
The mark [10] stands for this setting: 8 μg/mL, read-out: percent fluorescence.
The mark [11] stands for this setting: 16 μg/mL, read-out: percent fluorescence.

≈ marks a conversion by molar mass, not a printed value. Read-outs that look alike come from different tables or passages of the source.

Take `CC(=O)OCC1=C(C(=O)O)N2C(=O)[C@@H](NC(=O)Cc3cccs3)[C@H]2SC1` [Cephalothin, Cephalotin]: in the assay on Enterococcus faecalis [1] (setting [3]), the MIC worked out at 16 µg/mL (≈ 40.4 µM). Further, in the assay with Enterococcus faecalis [1] (setting [4]), the MIC worked out at 16 µg/mL (≈ 40.4 µM). In addition, in the assay on Enterococcus faecalis [2] (read-out: percent fluorescence), the activity at 8 µg/mL worked out at 103% and the activity at 16 µg/mL was 7%.

`C[C@@H](O)[C@H]1C(=O)N2C(C(=O)O)=C(SCCN=CN)C[C@H]12` [Imipenem]: the MIC with Enterococcus faecalis [1] (setting [5]) and in the assay with Enterococcus faecalis [1] (setting [6]) was 4 µg/mL (≈ 13.4 µM) each time. Further, the activity at 1 µg/mL in the assay on Enterococcus faecalis [2] (setting [7]) worked out at 65%. For the same compound, the activity at 2 µg/mL in the assay with Enterococcus faecalis [2] (setting [8]) was 5%. The activity at 4 µg/mL in the assay on Enterococcus faecalis [2] (setting [9]) is 5%. Further, in the assay on Enterococcus faecalis [2] (setting [10]), the activity at 8 µg/mL was found to be 5%.

For `O=C1CN(/N=C/c2ccc([N+](=O)[O-])o2)C(=O)N1` [Nitrofurantoin], the MIC in the assay with Enterococcus faecalis [1] (setting [5]) and with Enterococcus faecalis [1] (setting [6]) was less than 32 µg/mL in each case. Besides, in the assay with Enterococcus faecalis [2], the activity at 32 µg/mL turned out to be 86%. In addition, in the assay with Enterococcus faecalis [2] (46 μg/mL (printed 46Fd)), the activity at 46 µg/mL was found to be 21%.

For `Cc1nnc(SCC2=C(C(=O)O)N3C(=O)[C@@H](NC(=O)Cn4cnnn4)[C@H]3SC2)s1` [Cefazolin], the MIC in the assay with Enterococcus faecalis [1] (Enterococcus faecalis, Table 7, Example 1, read-out: concentration at which organism was found to be resistant) was more than 16 µg/mL; in the assay on Enterococcus faecalis [1] (setting [6]), more than 16 µg/mL. Besides, the activity at 2 µg/mL with Enterococcus faecalis [2] (setting [8]) came out at 105%. The activity at 4 µg/mL with Enterococcus faecalis [2] (setting [9]) was determined as 102%. In the assay on Enterococcus faecalis [2] (setting [10]), the activity at 8 µg/mL worked out at 104%. In addition, the activity at 16 µg/mL in the assay on Enterococcus faecalis [2] (setting [11]) stood at 100%.

Regarding `CN[C@H](CC(C)C)C(=O)N[C@H]1C(=O)N[C@@H](CC(N)=O)C(=O)N[C@H]2C(=O)N[C@H]3C(=O)N[C@H](C(=O)N[C@H](C(=O)O)c4cc(O)cc(O)c4-c4cc3ccc4O)[C@H](O)c3ccc(c(Cl)c3)Oc3cc2cc(c3O[C@@H]2O[C@H](CO)[C@@H](O)[C@H](O)[C@H]2O[C@H]2C[C@](C)(N)[C@H](O)[C@H](C)O2)Oc2ccc(cc2Cl)[C@H]1O` [Vancomycin], the MIC in the assay with Enterococcus faecalis [1] (setting [3]) was less than 2 µg/mL. Moreover, the MIC in the assay on Enterococcus faecalis [1] (setting [4]) was less than 2 µg/mL. Besides, in the assay with Enterococcus faecalis [2] (read-out: percent fluorescence), the activity at 2 µg/mL is 5%, the activity at 4 µg/mL was 5%, the activity at 8 µg/mL amounted to 5% and the activity at 16 µg/mL worked out at 2%.

For `CC1(C)S[C@@H]2[C@H](NC(=O)Cc3ccccc3)C(=O)N2[C@H]1C(=O)O` [Penicillin], in the assay with Enterococcus faecalis [2] (read-out: percent fluorescence), the activity at 0.03 µg/mL was 99%, the activity at 0.06 µg/mL amounted to 104%, the activity at 0.12 µg/mL was 105% and the activity at 0.5 µg/mL came out at 105%. Moreover, in the assay with Enterococcus faecalis [2] (read-out: percent fluorescence), the activity at 1 µg/mL came out at 93%, the activity at 2 µg/mL came out at 12%, the activity at 4 µg/mL worked out at 7% and the activity at 8 µg/mL worked out at 7%. Moreover, the activity at 25 µg/mL with Enterococcus faecalis [2] (read-out: percent fluorescence) was determined as 105%.

With `CO/N=C(\C(=O)N[C@@H]1C(=O)N2C(C(=O)O)=C(COC(C)=O)CS[C@H]12)c1csc(N)n1` [Cefotaxime], the MIC in the assay with Enterococcus faecalis [1] (setting [5]) is less than 4 µg/mL; with Enterococcus faecalis [1] (setting [6]) it was more than 4 µg/mL. In the assay with Enterococcus faecalis [2] (setting [9]), the activity at 4 µg/mL stood at 10%. The activity at 8 µg/mL in the assay with Enterococcus faecalis [2] (setting [10]) came to 8%. Further, the activity at 16 µg/mL in the assay on Enterococcus faecalis [2] (setting [11]) came to 8%. Also, the activity at 32 µg/mL in the assay with Enterococcus faecalis [2] came out at 7%.

For the compound `CC1(C)S[C@@H]2[C@H](NC(=O)[C@H](N)c3ccccc3)C(=O)N2[C@H]1C(=O)O` [Ampicillin], the MIC in the assay on Enterococcus faecalis [1] (setting [5]) and in the assay on Enterococcus faecalis [1] (setting [6]) was 0.5 µg/mL (≈ 1.43 µM) throughout. Moreover, the activity at 1 µg/mL with Enterococcus faecalis [2] (setting [7]) came out at 7%. Moreover, the activity at 2 µg/mL in the assay with Enterococcus faecalis [2] (setting [8]) was 6%. For the same compound, the activity at 4 µg/mL with Enterococcus faecalis [2] (setting [9]) stood at 5%. The activity at 8 µg/mL with Enterococcus faecalis [2] (setting [10]) was 6%. Further, the activity at 0.12 µg/mL in the assay on Enterococcus faecalis [2] (.12 μg/mL, read-out: percent fluorescence) came out at 105%. In the assay with Enterococcus faecalis [2] (.25 μg/mL, read-out: percent fluorescence), the activity at 0.25 µg/mL is 105%. Also, the activity at 0.5 µg/mL in the assay with Enterococcus faecalis [2] (.5 μg/mL, read-out: percent fluorescence) is 67%.

With `O=C(N[C@H](CO)[C@H](O)c1ccc([N+](=O)[O-])cc1)C(Cl)Cl` [Chloramphenicol], the MIC in the assay with Enterococcus faecalis [1] (setting [3]) was less than 4 µg/mL. Further, in the assay with Enterococcus faecalis [1] (setting [4]), the MIC was less than 4 µg/mL. In addition, in the assay with Enterococcus faecalis [2] (read-out: percent fluorescence), the activity at 4 µg/mL is 9%, the activity at 8 µg/mL was 6% and the activity at 16 µg/mL is 4%.

The values above are taken from patent US5457030A, “Method and composition for determining antimicrobial susceptibility of the majority clinically significant Gram postitive organism” (MicroScan, Inc., priority 1993, dated 1995).
